Tests used:
HL-60(TB) = format: cell-based; settings: Homo sapiens, one dose 10^-5 M, 48 h
IGROV1 = format: cell-based; settings: Homo sapiens, IGROV-1, one dose 10^-5 M, 48 h, read-out: % growth
A498 = format: cell-based; settings: Homo sapiens, one dose 10^-5 M, 48 h
HCT-15 = format: cell-based; settings: Homo sapiens, one dose 10^-5 M, 48 h, read-out: % growth
SF-539 = format: cell-based; settings: Homo sapiens, one dose 10^-5 M, 48 h
HS 578T = format: cell-based; settings: Homo sapiens; one dose 10^-5 M, 48 h; HS 578T; read-out: % growth
DU-145 = format: cell-based; settings: Homo sapiens, one dose 10^-5 M, 48 h
NCI/ADR-RES = format: cell-based; settings: Homo sapiens, one dose 10^-5 M, 48 h
HCT-116 = format: cell-based; settings: Homo sapiens, one dose 10^-5 M, 48 h, read-out: % growth
NCI-H23 = format: cell-based; settings: Homo sapiens, one dose 10^-5 M, 48 h, read-out: % growth
KM12 = format: cell-based; settings: Homo sapiens, one dose 10^-5 M, 48 h
A549/ATCC = format: cell-based; settings: Homo sapiens, one dose 10^-5 M, 48 h
RPMI-8226 = format: cell-based; settings: Homo sapiens, one dose 10^-5 M, 48 h
EKVX = format: cell-based; settings: Homo sapiens, one dose 10^-5 M, 48 h
[1] = test system: full NCI 60 cell lines panel; settings: for activity at 10 µM: Homo sapiens, 60 cell, 48 h, read-out: Mean % growth; for activity on all 60 cancer cell lines tested (in words): one dose
UACC-62 = format: cell-based; settings: Homo sapiens, one dose 10^-5 M, 48 h
SNB-75 = format: cell-based; settings: Homo sapiens, one dose 10^-5 M, 48 h
U251 = format: cell-based; settings: Homo sapiens, U-251, one dose 10^-5 M, 48 h
K-562 = format: cell-based; settings: Homo sapiens, K562, one dose 10^-5 M, 48 h
NCI-H522 = format: cell-based; settings: Homo sapiens, one dose 10^-5 M, 48 h
NCI-H226 = format: cell-based; settings: Homo sapiens, one dose 10^-5 M, 48 h
SK-MEL-5 = format: cell-based; settings: Homo sapiens, one dose 10^-5 M, 48 h, read-out: % growth
OVCAR-8 = format: cell-based; settings: Homo sapiens, one dose 10^-5 M, 48 h
MDA-MB-231/ATCC = format: cell-based; settings: Homo sapiens, one dose 10^-5 M, 48 h
COLO 205 = format: cell-based; settings: Homo sapiens, one dose 10^-5 M, 48 h
OVCAR-3 = format: cell-based; settings: Homo sapiens, one dose 10^-5 M, 48 h
T-47D = format: cell-based; settings: Homo sapiens, T47D, one dose 10^-5 M, 48 h, read-out: % growth
ACHN = format: cell-based; settings: Homo sapiens, one dose 10^-5 M, 48 h
UO-31 = format: cell-based; settings: Homo sapiens, UO-31, 48 h, one dose 10^-5 M, 48 h
M14 = format: cell-based; settings: Homo sapiens, one dose 10^-5 M, 48 h
NCI-H460 = format: cell-based; settings: Homo sapiens, one dose 10^-5 M, 48 h, read-out: % growth
SK-OV-3 = format: cell-based; settings: Homo sapiens, one dose 10^-5 M, 48 h
HOP-62 = format: cell-based; settings: Homo sapiens, one dose 10^-5 M, 48 h
LOX IMVI = format: cell-based; settings: Homo sapiens, one dose 10^-5 M, 48 h, read-out: % growth
CCRF-CEM = format: cell-based; settings: Homo sapiens, one dose 10^-5 M, 48 h
SW-620 = format: cell-based; settings: Homo sapiens, one dose 10^-5 M, 48 h
OVCAR-5 = format: cell-based; settings: Homo sapiens, one dose 10^-5 M, 48 h
SN12C = format: cell-based, human; settings: Homo sapiens, one dose 10^-5 M, 48 h
SK-MEL-2 = format: cell-based; settings: Homo sapiens, one dose 10^-5 M, 48 h
SF-268 = format: cell-based; settings: Homo sapiens, one dose 10^-5 M, 48 h, read-out: % growth
SNB-19 = format: cell-based; settings: Homo sapiens, one dose 10^-5 M, 48 h, read-out: % growth
SR = format: cell-based; settings: Homo sapiens, one dose 10^-5 M, 48 h
MCF7 = format: cell-based; settings: Homo sapiens, one dose 10^-5 M, 48 h, read-out: % growth
TK-10 = format: cell-based; settings: Homo sapiens, one dose 10^-5 M, 48 h
HOP-92 = format: cell-based; settings: Homo sapiens, one dose 10^-5 M, 48 h
PC-3 = format: cell-based; settings: Homo sapiens, one dose 10^-5 M, 48 h
UACC-257 = format: cell-based; settings: Homo sapiens, one dose 10^-5 M, 48 h
BT-549 = format: cell-based; settings: Homo sapiens, one dose 10^-5 M, 48 h
SK-MEL-28 = format: cell-based; settings: Homo sapiens, one dose 10^-5 M, 48 h
HT29 = format: cell-based; settings: Homo sapiens, HT-29, one dose 10^-5 M, 48 h
OVCAR-4 = format: cell-based; settings: Homo sapiens, one dose 10^-5 M, 48 h
MALME-3M = format: cell-based; settings: Homo sapiens, one dose 10^-5 M, 48 h
CAKI-1 = format: cell-based; settings: Homo sapiens, CAKI-1, 48 h, one dose 10^-5 M, 48 h
SF-295 = format: cell-based; settings: Homo sapiens, one dose 10^-5 M, 48 h
MDA-MB-468 = format: cell-based; settings: Homo sapiens, one dose 10^-5 M, 48 h
MDA-MB-435 = format: cell-based; settings: Homo sapiens, one dose 10^-5 M, 48 h, read-out: % growth
786-0 = format: cell-based; settings: Homo sapiens, one dose 10^-5 M, 48 h
MOLT-4 = format: cell-based; settings: Homo sapiens, one dose 10^-5 M, 48 h, read-out: % growth
RXF 393 = format: cell-based; settings: Homo sapiens, RXF 393, 48 h, one dose 10^-5 M, 48 h, read-out: % growth
HCC-2998 = format: cell-based; settings: Homo sapiens, one dose 10^-5 M, 48 h

CN(C)c1ccc(-c2cc([N+](=O)[O-])ccc2C=NNC(=N)c2cnc(S)nc2N)cc1 [Compound 4c, 4-amino-N'-[6-[4-(dimethylamino)phenyl]-(4-nitrophenyl)methylene]-2-mercapto pyrimidine-5-carboximidohydrazide]
% growth at 10 µM (HL-60(TB)): 96.4% | activity at 10 µM (IGROV1): 102% | % growth at 10 µM (A498): 124% | activity at 10 µM (HCT-15): 98.5% | % growth at 10 µM (SF-539): 98.8% | activity at 10 µM (HS 578T): 95.2% | % growth at 10 µM (DU-145): 108% | cell growth percent at 10 µM (NCI/ADR-RES): 102% | activity at 10 µM (HCT-116): 106% | activity at 10 µM (NCI-H23): 104% | % growth at 10 µM (KM12): 100% | % growth at 10 µM (A549/ATCC): 104% | % growth at 10 µM (RPMI-8226): 97% | % cell growth at 10 µM (EKVX): 100% | activity at 10 µM [1]: 103% | activity on all 60 cancer cell lines tested (in words) [1]: weak activity | % growth at 10 µM (UACC-62): 100% | % growth at 10 µM (SNB-75): 100% | % growth at 10 µM (U251): 106% | % growth at 10 µM (K-562): 104% | % growth at 10 µM (NCI-H522): 96% | % growth at 10 µM (NCI-H226): 112% | activity at 10 µM (SK-MEL-5): 103% | % growth of cells at 10 µM (OVCAR-8): 95.8% | % growth at 10 µM (MDA-MB-231/ATCC): 111% | % growth at 10 µM (COLO 205): 127% | % growth at 10 µM (OVCAR-3): 106% | activity at 10 µM (T-47D): 101% | % growth at 10 µM (ACHN): 103% | % cell growth at 10 µM (UO-31): 75.4% | % growth at 10 µM (M14): 110% | activity at 10 µM (NCI-H460): 108% | % growth at 10 µM (SK-OV-3): 95.7% | % growth at 10 µM (HOP-62): 102% | activity at 10 µM (LOX IMVI): 99.3% | % cell growth at 10 µM (CCRF-CEM): 84.4% | % growth at 10 µM (SW-620): 109% | percent cell growth at 10 µM (OVCAR-5): 110% | % growth at 10 µM (SN12C): 99.5% | % growth at 10 µM (SK-MEL-2): 114% | activity at 10 µM (SF-268): 87.8% | activity at 10 µM (SNB-19): 97.2% | percent cell growth at 10 µM (SR): 107% | activity at 10 µM (MCF7): 92% | % cell growth at 10 µM (TK-10): 102% | % growth at 10 µM (HOP-92): 118% | percent cell growth at 10 µM (PC-3): 94.1% | percent cell growth at 10 µM (UACC-257): 106% | % cell growth at 10 µM (BT-549): 112% | % cell growth at 10 µM (SK-MEL-28): 112% | % growth at 10 µM (HT29): 109% | % growth at 10 µM (OVCAR-4): 101% | % growth at 10 µM (MALME-3M): 108% | % growth at 10 µM (CAKI-1): 99.6% | % cell growth at 10 µM (SF-295): 92.4% | percent cell growth at 10 µM (MDA-MB-468): 108% | activity at 10 µM (MDA-MB-435): 102% | % growth at 10 µM (786-0): 95.7% | activity at 10 µM (MOLT-4): 109%

Nc1nc(S)nc(-c2ccc(Cl)cc2)c1-c1ncn[nH]1 [Compound 5b, 4-Amino-6–(4-chlorophenyl)-5-(1H-1,2,4-triazol-5-yl)pyrimidine-2-thiol]
% growth at 10 µM (HL-60(TB)): 108% | activity at 10 µM (IGROV1): 98.7% | % growth at 10 µM (A498): 109% | activity at 10 µM (HCT-15): 103% | % growth at 10 µM (SF-539): 92.5% | activity at 10 µM (HS 578T): 111% | % growth at 10 µM (DU-145): 109% | activity at 10 µM (HCT-116): 92.1% | activity at 10 µM (NCI-H23): 97% | % growth at 10 µM (KM12): 102% | % growth at 10 µM (A549/ATCC): 110% | % growth at 10 µM (RPMI-8226): 98.6% | % cell growth at 10 µM (EKVX): 98% | activity at 10 µM [1]: 98.4% | activity on all 60 cancer cell lines tested (in words) [1]: weak activity | % growth at 10 µM (UACC-62): 95.9% | % growth at 10 µM (SNB-75): 78.7% | % growth at 10 µM (U251): 98.8% | % growth at 10 µM (K-562): 103% | % growth at 10 µM (NCI-H522): 85.5% | % growth at 10 µM (NCI-H226): 92.7% | activity at 10 µM (SK-MEL-5): 98.7% | activity at 10 µM (RXF 393): 115% | % growth of cells at 10 µM (OVCAR-8): 94.8% | % growth at 10 µM (MDA-MB-231/ATCC): 93.7% | % growth at 10 µM (OVCAR-3): 108% | activity at 10 µM (T-47D): 86.4% | % growth at 10 µM (ACHN): 96.9% | % cell growth at 10 µM (UO-31): 74.6% | % growth at 10 µM (M14): 98.9% | activity at 10 µM (NCI-H460): 110% | % growth at 10 µM (SK-OV-3): 85.5% | % growth at 10 µM (HOP-62): 88.6% | activity at 10 µM (LOX IMVI): 99.2% | % cell growth at 10 µM (CCRF-CEM): 97.9% | % growth at 10 µM (SW-620): 103% | percent cell growth at 10 µM (OVCAR-5): 96.7% | % growth at 10 µM (SN12C): 93.5% | % growth at 10 µM (SK-MEL-2): 108% | activity at 10 µM (SF-268): 96.7% | activity at 10 µM (SNB-19): 91% | percent cell growth at 10 µM (SR): 96.6% | activity at 10 µM (MCF7): 93.8% | % cell growth at 10 µM (TK-10): 109% | % growth at 10 µM (HOP-92): 91.7% | percent cell growth at 10 µM (PC-3): 85.5% | percent cell growth at 10 µM (UACC-257): 112% | % cell growth at 10 µM (SK-MEL-28): 111% | % growth at 10 µM (HT29): 95.4% | % growth at 10 µM (OVCAR-4): 112% | % growth at 10 µM (MALME-3M): 92.6% | % growth at 10 µM (CAKI-1): 82.8% | % cell growth at 10 µM (SF-295): 93.7% | percent cell growth at 10 µM (MDA-MB-468): 101% | activity at 10 µM (MDA-MB-435): 103% | % growth at 10 µM (HCC-2998): 94.8% | % growth at 10 µM (786-0): 108% | activity at 10 µM (MOLT-4): 108%

— article PMC10866072, “Design, synthesis, molecular modelling and biological evaluation of novel 6-amino-5-cyano-2-thiopyrimidine derivatives as potent anticancer agents against leukemia and apoptotic inducers” (Journal of Enzyme Inhibition and Medicinal Chemistry, 2024)
